Test results as given in patent US20040009464A1, “Methods for identifying compounds for inhibition of neoplastic lesions, and pharmacetical compositions containing such compounds” (priority 1998, published 2004).

Test system: HT-29 cells
Experiment: Apoptosis and necrosis by morphology (acridine orange/ethidium bromide) in HT-29 cells
Format: cell-based, human
Settings: HT-29 treated for six days
Excerpt: Apoptosis occurs naturally during normal tissue turnover and during embryonic development of organs and limbs. Apoptosis also is induced by cytotoxic T-lymphocytes and natural killer cells, by ionizing radiation and by certain chemotherapeutic drugs. Inappropriate regulation of apoptosis is thought to play an important role in many pathological conditions including cancer, AIDS, or Alzheimer's disease, etc. Compounds can be screened for induction of apoptosis using cultures of tumor cells maintained under conditions as described above. Treatment of cells with test compounds involves either pre- or post-confluent cultures and treatment for two to seven days at various concentrations. Apoptotic cells are measured in both the attached and “floating” compartments of the cultures. Both compartments are collected by removing the supernatant, trypsinizing the attached cells, and combining both preparations following a centrifugation wash step (10 minutes, 2000 rpm). The protocol for treating tumor cell cultures with sulindac and related compounds to obtain a significant amount of apoptosis has been described in the literature. […]
The apoptosis inducing activity for a series of phosphodiesterase inhibitors was determined. […] Apoptosis and necrosis were determined morphologically after acridine orange and ethidium bromide labeling in accordance with the assay described, supra.

CC1=C(CC(=O)O)c2cc(F)ccc2/C1=C\c1ccc(S(C)(=O)=O)cc1 [Exisulind, 5-fluoro-2-methyl-1-(p-methylsulfonylbenzylidene)-3-indenylacetic acid]
apoptotic and necrotic cell death: capable of causing apoptotic cell death without inducing necrosis
